The record followed here is the Deep4Chem optical property database.

Values joined by “and” are separate entries in the source; they are usually repeats but may differ in a detail not shown here. Equal entries are not always repeated.

A short description of this data set: solvent given as SMILES.

Consider `CCN(CC)c1ccc(/N=N/c2nc3ccc([N+](=O)[O-])cc3s2)cc1`, for which the fluorescence lifetime is, setting by setting: (in CC#N) 6.03 ns; (in ClCCl) 8.14 ns.
Regarding `CCCCCCCCN1c2ccccc2Sc2cc(/C=C/c3ccc(N(c4ccc(/C=C/c5ccc6c(c5)Sc5ccccc5N6CCCCCCCC)cc4)c4ccc(/C=C/c5ccc(/C=C/c6ccc(N(c7ccc(/C=C/c8ccc9c(c8)Sc8ccccc8N9CCCCCCCC)cc7)c7ccc(/C=C/c8ccc9c(c8)Sc8ccccc8N9CCCCCCCC)cc7)cc6)c6nsnc56)cc4)cc3)ccc21`, the fluorescence lifetime runs as follows: (in C1CCOC1) 1.45 ns; (in CCOC(C)=O) 1.83 ns; (in Cc1ccccc1) 3.53 ns; (in ClC(Cl)Cl) 2.25 ns; (in ClCCl) 2 ns.
Regarding `F[B-]1(F)OC(c2ccc(Br)cc2)=Cc2ccc3ccccc3[n+]21`, the fluorescence lifetime (in ClC(Cl)Cl) came to 1.21 ns.
`CC[Si](CC)(CC)c1cc2ccc3cccc4ccc(c1C(=O)NC(C)(C)C)c2c34` showed a fluorescence lifetime (in ClC(Cl)Cl) of 7.63 ns.
Regarding `CC1=CC(C)=[N+]2C1=C(c1ccc(-c3ccc(O)cc3)s1)c1c(C)cc(C)n1[B-]2(F)F`, for the setting “in Cc1ccccc1”, the fluorescence lifetime came out at 3.5 ns.
Regarding `Oc1ccc(Br)cc1-c1nc2c(c3c1-c1ccccc1CC3)-c1ccccc1CC2`, the fluorescence lifetime (in ClCCl) stood at 1.94 ns.
In turn, `COc1ccc(/C=C/c2ccccc2)cc1` showed a fluorescence lifetime (in CC#N) of 0.04 ns.
With `Cc1ccc(C2=[N+]3C(=Cc4c(C)cc(C)n4[B-]3(F)F)c3ccccc32)[nH]1`, the fluorescence lifetime is 6.54 ns (in C1CCOC1); 6.32 ns (in CC#N); 7.31 ns (in CCCCCC); 6.5 ns (in CO); 6.17 ns (in Cc1ccccc1); 6.65 ns (in ClCCl).
Turning to `Cc1cc(=O)oc2c3c4c(cc12)CCCN4CCC3`, the fluorescence lifetime was 2.6 ns (in C1CCCCC1); 3.3 ns (in CC#N); 4.26 ns (in CCC#N); 3.75 ns (in CCCCl); 4.5 ns and 4.54 ns (in CCO); 5.9 ns (in O). Besides, the fluorescence lifetime stood at 6.88 ns (in OC(C(F)(F)F)C(F)(F)F) and 6.36 ns (in OCC(F)(F)F).
For `C[Si]1(C)c2cc(-c3cccs3)ccc2C=Cc2ccc(-c3cccs3)cc21`, the fluorescence lifetime (in ClCCl) came out at 1.4 ns.
As for `c1ccc(/C(=C(\c2ccccc2)c2ccccc2-c2ccc(-c3ccccc3)cc2)c2ccccc2-c2ccc(-c3ccccc3)cc2)cc1`, the fluorescence lifetime (in C1CCOC1) was determined as 7 ns.
On to `CC[Si](CC)(CC)Oc1cccc(O[Si](CC)(CC)CC)c1-c1c2ccccc2c(-c2c(O[Si](CC)(CC)CC)cccc2O[Si](CC)(CC)CC)c2ccccc12`, for which, where the note is “in C1CCCCC1”, the fluorescence lifetime was found to be 7.8 ns.
`Cc1cc(C)c2nc3c(=O)n(C)c(=O)nc-3n(C)c2c1`: for the setting “in CC#N”, the fluorescence lifetime came to 3.9 ns.
Take `c1ccc(-c2nc(-c3ccccc3)nc(-c3ccc(-n4c5ccccc5c5ccc6c7ccccc7n(-c7ccccc7)c6c54)cc3)n2)cc1`: the fluorescence lifetime (in O=P(c1ccccc1)(c1ccccc1)c1ccc2oc3ccc(P(=O)(c4ccccc4)c4ccccc4)cc3c2c1) was 11.9 ns.
Take `Nc1ccc2ccc(O)cc2c1`: where the note is “in O”, the fluorescence lifetime worked out at 7.69 ns.
Take `CN(C)c1ccc(/C=C/C=C2\CC/C(=C\c3ccc(N(C)C)cc3)C2=O)cc1`: the fluorescence lifetime by setting is: (in C1CCOC1) 0.42 ns; (in CC#N) 0.91 ns; (in CC(C)=O) 1.15 ns; (in CC(C)O) 1.24 ns; (in CCCCO) 1.25 ns; (in CCCCOC(C)=O) 0.63 ns. The compound further registered a fluorescence lifetime (in CCCO) of 1.13 ns; a fluorescence lifetime (in CCO) of 0.82 ns; a fluorescence lifetime (in CCOC(=O)c1ccccc1) of 0.83 ns; a fluorescence lifetime (in CCOC(C)=O) of 0.71 ns; a fluorescence lifetime (in CCOCC) of 0.31 ns; a fluorescence lifetime (in CN(C)C=O) of 1.32 ns. Besides, the fluorescence lifetime stood at 0.3 ns (in CO); 1.4 ns (in CS(C)=O); 0.36 ns (in Cc1ccccc1); 0.29 ns (in ClC(Cl)(Cl)Cl); 0.98 ns (in ClC(Cl)Cl); 1.13 ns (in ClCCl). Also, the fluorescence lifetime was found to be 0.83 ns (in Clc1ccccc1Cl), 0.43 ns (in S=C=S), 0.38 ns (in c1ccccc1) and 1.26 ns (in c1ccncc1).
In the case of `NS(=O)(=O)c1ccc(N2N=C(c3ccc(O)cc3)CC2c2ccc(Br)cc2)cc1` (centres undefined), the fluorescence lifetime is, setting by setting: (in C1CCOC1) 2.25 ns; (in C1COCCO1) 2.17 ns; (in CC#N) 2.2 ns; (in CC(C)O) 1.98 ns; (in CCO) 1.84 ns; (in CCOC(C)=O) 2.18 ns. Further, the fluorescence lifetime was 2.12 ns (in CN(C)C=O), 1.67 ns (in CO), 2 ns (in CS(C)=O) and 3.07 ns (in O).
Consider `Cc1cn(CCCn2cc(C)c(=O)[nH]c2=O)c(=O)nc1-n1cncn1`, for which the fluorescence lifetime (in O) worked out at 0.74 ns.
Under “in CCO”, `CC1(C)CC(/C=C/c2ccc(-n3cccn3)cc2)=CC(=C(C#N)C#N)C1` registered a fluorescence lifetime of 0.05 ns.
As to `COc1ccc(C2=C3C=CC(C)=[N+]3[B-](F)(F)n3c(C)ccc32)cc1`, the fluorescence lifetime turned out to be 2.87 ns (in C1CCCCC1); 1.6 ns (in CC#N); 2.24 ns (in CCOC(C)=O); 1.87 ns (in CO); 3.35 ns (in Cc1ccccc1); 3.28 ns (in ClC(Cl)Cl).
For the setting “in ClCCl”, `COc1ccc(/C=C/c2nc(N3CCOCC3)c3c([n+]2[O-])CCCC3)cc1` displayed a fluorescence lifetime of 8.3 ns.
Consider `CCOC(=O)COc1ccc(/C=C/C2=C3c4ccccc4C(c4[nH]c(C)cc4C)=[N+]3[B-](F)(F)n3c(/C=C/c4ccc(OCC(=O)OCC)cc4)cc(C)c32)cc1`, for which the fluorescence lifetime (in ClCCl) was found to be 4.82 ns.
With `CN(C)c1ccc2nc(-c3ccc(C=C(C#N)C#N)cc3)sc2c1`, the fluorescence lifetime (in C1CCCCC1) is 3.1 ns.
In the case of `O=c1oc2c(ccc3ccccc32)nc1-c1ccccc1`, the fluorescence lifetime (in c1ccccc1) was determined as 6 ns.
Regarding `N#C/C(=C\c1ccc(C=C(c2ccccc2)c2ccccc2)cc1)c1ccccc1`, under “in C1CCOC1”, the fluorescence lifetime came to 1 ns.
Compound `CC1=CC(C)=[N+]2C1=C(c1ccccc1)c1c(C)c(-c3cccs3)c(C)n1[B-]2(F)F` showed a fluorescence lifetime (in Cc1ccccc1) of 3.2 ns.
Take `Cc1cc(=O)oc2c1cc(Br)c1occ(C)c12`: the fluorescence lifetime was found to be 0.023 ns (in C1COCCO1), 0.044 ns (in CC#N), 0.08 ns (in CCO) and 0.13 ns (in OCC(F)(F)F).
`Nc1cccc2c1ccc1[n+]2[B-](F)(F)n2c-1cc1c3ccccc3c3ccccc3c12` came in with a fluorescence lifetime (in ClCCl) of 2.19 ns.
As to `C(/C=C/c1cc2c3c(c1)CCCN3CCC2)=C\c1ccncc1`, the fluorescence lifetime is, setting by setting: (in C1COCCO1) 0.25 ns; (in CC#N) 0.57 ns.
Take `FC(F)(F)c1ccc(/C=C/c2nc3c(ccc4ccccc43)s2)cc1`: the fluorescence lifetime reads like this: (in C1CCCCC1) 0.75 ns; (in CC#N) 0.84 ns.
`c1ccc2c(c1)[nH]c1cccnc12` gave a fluorescence lifetime (in C1CCCCC1) of 4.6 ns.
Consider `CNc1ccc(/C=C/C#N)cc1`, for which the fluorescence lifetime worked out at 0.6 ns (in C1CCCCC1), 0.6 ns (in CC#N) and 1.13 ns (in O).
Under “in ClCCl”, `COC(=O)c1ccc(Oc2ccc3c4c(cccc24)C(=O)N(c2c(C(C)C)cccc2C(C)C)C3=O)cc1` yielded a fluorescence lifetime of 3.37 ns.
The compound `c1ccc(-c2ccc(-c3ccc(N(c4ccccc4)c4ccccc4)cc3)c3nsnc23)cc1` had a fluorescence lifetime (in C1CCOC1) of 7.95 ns, a fluorescence lifetime (in CC(C)=O) of 3.58 ns, a fluorescence lifetime (in CCCCCC) of 6.77 ns and a fluorescence lifetime (in CCOCC) of 7.46 ns.
The compound `COc1ccc2ccc(O)cc2c1` had a fluorescence lifetime (in O) of 8.33 ns.
For the setting “in CC#N”, `C=Cc1cc2ccccc2oc1=O` registered a fluorescence lifetime of 0.39 ns.
On the same count and under the same terms, for `Fc1ccc(-[c+]2c3ccccc3oc3ccccc32)cc1` the value was 18.8 ns.
For the compound `COC(=O)C([NH3+])Cc1ccc2oc(-c3ccncc3)nc2c1` (centres undefined), the fluorescence lifetime is, setting by setting: (in CC1CCCCC1) 3.12 ns; (in CC#N) 6.09 ns; (in CO) 0.742 ns; (in O) 0.999 ns.
Compound `CCC1(CC)c2cc(B(c3c(C)cc(C)cc3C)c3c(C)cc(C)cc3C)ccc2-c2c1c1c(c3c2C(CC)(CC)c2cc(N(c4ccccc4)c4ccccc4)ccc2-3)C(CC)(CC)c2cc(N(c3ccccc3)c3ccccc3)ccc2-1` showed a fluorescence lifetime (in C1CCOC1) of 14.4 ns.
Turning to `CCCCCn1c2ccc(S(=O)(=O)O)cc2c(=O)c2cc(S(=O)(=O)O)ccc21`, the fluorescence lifetime runs as follows: (in CS(C)=O) 10.2 ns; (in O) 15.6 ns.
In the case of `FC(F)(F)c1cc2n(n1)[B-]1(c3ccccc3Oc3ccccc31)[n+]1ccc3ccccc3c1-2`, the fluorescence lifetime by setting is: (in C1CCCCC1) 1.79 ns; (in Cc1ccccc1) 1.85 ns; (in ClCCl) 2.45 ns.
Regarding `Cc1ccc2nc3c(nc2c1)c(-c1ccccc1)nn3C`, the fluorescence lifetime reads like this: (in C1CCCCC1) 9.32 ns; (in C1CCOC1) 23.6 ns; (in CC#N) 19.8 ns.
As to `COc1ccc(-c2c3ccc([nH]3)c3nc(c(-c4ccc(C#N)cc4)c4ccc([nH]4)c4ccc([nH]4)c(-c4ccc(OC)cc4)c4ccc2o4)C=C3)cc1`, the fluorescence lifetime reads like this: (in C1CCOC1) 5.6 ns; (in Cc1ccccc1) 5.65 ns; (in c1ccccc1) 4.88 ns.
Compound `CCCCCc1c(C(=O)c2ccc3c4c(cccc24)-c2cccc4c2C3CC=C4)c2ccc3cccc4c5cccc6ccc1c(c65)c2c34` (centres undefined) came in with a fluorescence lifetime (in ClCCl) of 1.09 ns.
For the setting “in ClCCl”, `CCN(CC)c1ccc(-c2cc3c(s2)c(C(=O)OC)cc(=O)n3C)cc1` yielded a fluorescence lifetime of 6.59 ns.
As to `CCCCOC(=O)c1cc(Oc2ccc(C(C)(C)C)cc2)c2c3c(Cl)cc4c5c(cc(Cl)c(c6c(Oc7ccc(C(C)(C)C)cc7)cc(C(=O)OCCCC)c1c26)c53)C(=O)N(c1c(C(C)C)cccc1C(C)C)C4=O`, under “in Cc1ccccc1”, the fluorescence lifetime worked out at 6.42 ns.
`C(=C\c1ccc(/C=C/c2ccc(N(c3ccccc3)c3ccccc3)cc2)c2nsnc12)/c1ccc(N(c2ccccc2)c2ccccc2)cc1` gave a fluorescence lifetime (in C1CCOC1) of 4.53 ns; a fluorescence lifetime (in CCOC(C)=O) of 4.74 ns; a fluorescence lifetime (in CN(C)C=O) of 2.75 ns; a fluorescence lifetime (in Cc1ccccc1) of 4.29 ns; a fluorescence lifetime (in ClC(Cl)Cl) of 4.21 ns; a fluorescence lifetime (in ClCCl) of 4.1 ns.
